Patent publication US9676766B2, “Triazolopyridines” (BAYER INTELLECTUAL PROPERTY GMBH, priority 2009, dated 2017)

Each compound was assayed against T1, human kinase Mps-1 (Homo sapiens, UniProt P33981) (assay: Mps-1 Kinase Assay (TR-FRET)). Conditions: N-terminally GST-tagged human full length recombinant Mps-1; 10 μM ATP; 1 μM biotinylated peptide substrate; 60 min at 22° C.; read-out: MPS1 Inhibition, IC50 in M.
T1 construct: N-terminally GST-tagged human full length recombinant Mps-1 kinase; purchased Invitrogen, Karslruhe, Germany PV4071
T1 sequence (P33981 1-857): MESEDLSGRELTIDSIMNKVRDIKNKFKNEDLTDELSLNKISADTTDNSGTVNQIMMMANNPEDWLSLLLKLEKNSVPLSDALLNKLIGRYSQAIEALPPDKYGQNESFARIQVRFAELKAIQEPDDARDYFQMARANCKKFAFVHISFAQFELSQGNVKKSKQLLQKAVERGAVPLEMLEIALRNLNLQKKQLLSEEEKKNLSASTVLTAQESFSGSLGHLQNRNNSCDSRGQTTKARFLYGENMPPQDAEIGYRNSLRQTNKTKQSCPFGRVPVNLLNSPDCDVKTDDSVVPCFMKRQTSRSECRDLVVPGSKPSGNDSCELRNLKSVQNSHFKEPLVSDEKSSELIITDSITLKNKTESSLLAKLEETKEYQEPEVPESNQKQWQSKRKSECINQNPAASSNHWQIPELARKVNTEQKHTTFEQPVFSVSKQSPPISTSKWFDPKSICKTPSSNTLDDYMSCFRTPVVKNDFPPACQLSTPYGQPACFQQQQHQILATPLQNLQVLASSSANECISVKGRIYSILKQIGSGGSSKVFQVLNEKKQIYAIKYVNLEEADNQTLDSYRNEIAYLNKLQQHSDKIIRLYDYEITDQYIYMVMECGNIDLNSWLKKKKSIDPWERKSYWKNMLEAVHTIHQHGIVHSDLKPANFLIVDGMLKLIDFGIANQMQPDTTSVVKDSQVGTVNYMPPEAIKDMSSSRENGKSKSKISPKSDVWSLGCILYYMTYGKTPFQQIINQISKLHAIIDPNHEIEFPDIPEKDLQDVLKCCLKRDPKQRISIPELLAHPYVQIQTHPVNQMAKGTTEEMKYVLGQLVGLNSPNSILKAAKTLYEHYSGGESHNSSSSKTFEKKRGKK
Assay type: biochemical

First: N#Cc1ccccc1Nc1nc2ccc(-c3cccc(C(=O)Nc4ccccc4)c3)cn2n1 [Example 2.1, 3-{2-[(2-cyanophenyl)amino][1,2,4]triazolo[1,5-a]pyridin-6-yl}-N-phenylbenzamide]
Second: N#Cc1ccccc1Nc1nc2ccc(-c3cccc(C(=O)NCc4ccccc4)c3)cn2n1 [Example 9.4, N-benzyl-3-{2-[(2-cyanophenyl)amino][1,2,4]triazolo[1,5-a]pyridin-6-yl}benzamide]
The IC50 of the first is 3.1-fold higher: 65 nM for the first, 21 nM for the second.

Compared with `N#Cc1ccccc1Nc1nc2ccc(-c3cccc(C(=O)NC4CCCC4)c3)cn2n1` [Example 9.2, 3-{2-[(2-cyanophenyl)amino][1,2,4]triazolo[1,5-a]pyridin-6-yl}-N-cyclopentylbenzamide], `COc1ccccc1Nc1nc2ccc(-c3cccc(C(=O)NC4CC4)c3)cn2n1` [Example 10.1, N-cyclopropyl-3-{2-[(2-methoxyphenyl)amino][1,2,4]triazolo[1,5-a]pyridin-6-yl}benzamide] is 2.2-fold higher in IC50: 2.9 nM for the first, 6.5 nM for the second. The first is the more potent here.

Compared with `O=C(Cc1cccnc1)Nc1ccc(-c2ccc3nc(Nc4ccccc4C(F)(F)F)nn3c2)cc1` [Example 5.8, 2-(pyridin-3-yl)-N-[4-(2-{[2-(trifluoromethyl)phenyl]amino}[1,2,4]triazolo[1,5-a]pyridin-6-yl)phenyl]acetamide], `O=C(Cc1ccccc1)Nc1ccc(-c2ccc3nc(Nc4ccccc4C(F)(F)F)nn3c2)cc1` [Example 5.1, 2-phenyl-N-[4-(2-{[2-(trifluoromethyl)phenyl]amino}[1,2,4]triazolo[1,5-a]pyridin-6-yl)phenyl]acetamide] is 14-fold lower in IC50: 99 nM for the first, 7.1 nM for the second. The second is the more potent here.

Going from `COc1ccccc1Nc1nc2ccc(-c3ccc(C(=O)NC4CC4)cc3)cn2n1` [Example 1.1, N-Cyclopropyl-4-[2-(2-methoxy-phenylamino)-[1,2,4]triazolo[1,5-a]pyridin-6-yl]-benzamide] to `COc1ccccc1Nc1nc2ccc(-c3ccc(NC(=O)C4CC4)cc3)cn2n1` [Example 4.3, N-(4-{2-[(2-methoxyphenyl)amino][1,2,4]triazolo[1,5-a]pyridin-6-yl}phenyl)cyclopropanecarboxamide], the IC50 falls from 370 nM to 39 nM (9.5-fold).

Compared with `N#Cc1ccccc1Nc1nc2ccc(-c3ccc(NC(=O)Cc4cccnc4)cc3)cn2n1` [Example 3.8, N-(4-{2-[(2-cyanophenyl)amino][1,2,4]triazolo[1,5-a]pyridin-6-yl}phenyl)-2-(pyridin-3-yl)acetamide], `N#Cc1ccccc1Nc1nc2ccc(-c3ccc(NC(=O)Cc4cccc(F)c4)cc3)cn2n1` [Example 3.5, N-(4-{2-[(2-cyanophenyl)amino][1,2,4]triazolo[1,5-a]pyridin-6-yl}phenyl)-2-(3-fluorophenyl)acetamide] is 3.2-fold lower in IC50: 3.5 nM for the first, 1.1 nM for the second.

Compared with `COc1ccccc1Nc1nc2ccc(-c3cccc(NC(=O)N4CCC(N(C)C)CC4)c3)cn2n1` [Example 8.11, 4-(dimethylamino)-N-(3-{2-[(2-methoxyphenyl)amino][1,2,4]triazolo[1,5-a]pyridin-6-yl}phenyl)piperidine-1-carboxamide], `COc1ccccc1Nc1nc2ccc(-c3cccc(NC(=O)C4CC4)c3)cn2n1` [Example 8.2, N-(3-{2-[(2-methoxyphenyl)amino][1,2,4]triazolo[1,5-a]pyridin-6-yl}phenyl)cyclopropanecarboxamide] is 11-fold lower in IC50: 640 nM for the first, 59 nM for the second. The second is the more potent here.

Going from `COc1ccccc1Nc1nc2ccc(-c3cccc(C(=O)NCc4ccccc4)c3)cn2n1` [Example 10.2, N-benzyl-3-{2-[(2-methoxyphenyl)amino][1,2,4]triazolo[1,5-a]pyridin-6-yl}benzamide] to `COc1ccccc1Nc1nc2ccc(-c3cccc(NC(=O)c4ccccc4)c3)cn2n1` [Example 8.7, N-(3-{2-[(2-methoxyphenyl)amino][1,2,4]triazolo[1,5-a]pyridin-6-yl}phenyl)benzamide], the IC50 rises from 45 nM to 290 nM (6.4-fold).

Going from `CO[C@H](C(=O)Nc1ccc(-c2ccc3nc(Nc4ccccc4C#N)nn3c2)cc1)c1ccccc1` (stereo in doubt) [Example 3.2, N-(4-{2-[(2-cyanophenyl)amino][1,2,4]triazolo[1,5-a]pyridin-6-yl}phenyl)-2-methoxy-2-phenylacetamide] to `COC(C(=O)Nc1ccc(-c2ccc3nc(Nc4ccccc4C(F)(F)F)nn3c2)cc1)c1ccccc1` (racemic) [Example 5.9, Rac-2-methoxy-2-phenyl-N-[4-(2-{[2-(trifluoromethyl)phenyl]amino}[1,2,4]-triazolo[1,5-a]pyridin-6-yl)phenyl]acetamide], the IC50 rises from 3.4 nM to 110 nM (32-fold). The first is the more potent here.

`COc1ccccc1Nc1nc2ccc(-c3cccc(NS(=O)(=O)c4ccccc4)c3)cn2n1` [Example 8.6, N-(3-{2-[(2-methoxyphenyl)amino][1,2,4]triazolo[1,5-a]pyridin-6-yl}phenyl)benzenesulfonamide] and `COc1ccccc1Nc1nc2ccc(-c3cccc(NC(=O)Cc4ccccc4)c3)cn2n1` [Example 8.1, N-(3-{2-[(2-methoxyphenyl)amino][1,2,4]triazolo[1,5-a]pyridin-6-yl}phenyl)-2-phenylacetamide] are within 1.5-fold of each other in IC50: 360 nM for the first, 290 nM for the second.

Compared with `COc1ccccc1Nc1nc2ccc(-c3ccc(NC(=O)CC4CC4)cc3)cn2n1` [Example 4.2, 2-cyclopropyl-N-(4-{2-[(2-methoxyphenyl)amino][1,2,4]triazolo[1,5-a]pyridin-6-yl}phenyl)acetamide], `O=C(CC1CC1)Nc1ccc(-c2ccc3nc(Nc4ccccc4C(F)(F)F)nn3c2)cc1` [Example 5.3, 2-cyclopropyl-N-[4-(2-{[2-(trifluoromethyl)phenyl]amino}[1,2,4]triazolo[1,5-a]pyridin-6-yl)phenyl]acetamide] is 3-fold higher in IC50: 27 nM for the first, 81 nM for the second. The first is the more potent here.

Going from `COc1ccccc1Nc1nc2ccc(-c3cccc(NC(=O)NC4CC4)c3)cn2n1` [Example 8.9, 1-cyclopropyl-3-(3-{2-[(2-methoxyphenyl)amino][1,2,4]triazolo[1,5-a]pyridin-6-yl}phenyl)urea] to `COc1ccccc1Nc1nc2ccc(-c3cccc(NS(=O)(=O)C4CC4)c3)cn2n1` [Example 8.4, N-(3-{2-[(2-methoxyphenyl)amino][1,2,4]triazolo[1,5-a]pyridin-6-yl}phenyl)cyclopropanesulfonamide], the IC50 rises from 84 nM to 290 nM (3.5-fold). The first is the more potent here.

First: CN1CCN(CC(=O)Nc2ccc(-c3ccc4nc(Nc5ccccc5C(F)(F)F)nn4c3)cc2)CC1 [Example 5.4, 2-(4-methylpiperazin-1-yl)-N-[4-(2-{[2-(trifluoromethyl)phenyl]amino}[1,2,4]triazolo[1,5-a]pyridin-6-yl)phenyl]acetamide]
Second: O=C(CN1CCOCC1)Nc1ccc(-c2ccc3nc(Nc4ccccc4C(F)(F)F)nn3c2)cc1 [Example 5.5, 2-(morpholin-4-yl)-N-[4-(2-{[2-(trifluoromethyl)phenyl]amino}[1,2,4]triazolo[1,5-a]pyridin-6-yl)phenyl]acetamide]
The IC50 of the first is 1.5-fold lower: 2200 nM for the first, 3300 nM for the second. The first is the more potent here.

`CN1CCN(C(=O)c2cccc(-c3ccc4nc(Nc5ccccc5C#N)nn4c3)c2)CC1` [Example 9.1, 2-[(6-{3-[(4-methylpiperazin-1-yl)carbonyl]phenyl}[1,2,4]triazolo[1,5-a]pyridin-2-yl)amino]benzonitrile] and `COc1ccccc1Nc1nc2ccc(-c3cccc(NS(=O)(=O)CC4CC4)c3)cn2n1` [Example 8.3, 1-Cyclopropyl-N-(3-{2-[(2-methoxyphenyl)amino][1,2,4]triazolo[1,5-a]pyridin-6-yl}phenyl)methanesulfonamide] are within 1.5-fold of each other in IC50: 59 nM for the first, 66 nM for the second.

Compared with `COc1ccccc1Nc1nc2ccc(-c3cccc(NC(=O)Nc4ccccc4)c3)cn2n1` [Example 8.5, 1-(3-{2-[(2-methoxyphenyl)amino][1,2,4]triazolo[1,5-a]pyridin-6-yl}phenyl)-3-phenylurea], `COc1ccccc1Nc1nc2ccc(-c3cccc(NC(=O)Nc4ccncc4)c3)cn2n1` [Example 8.14, 1-(3-{2-[(2-methoxyphenyl)amino][1,2,4]triazolo[1,5-a]pyridin-6-yl}phenyl)-3-pyridin-4-ylurea] is 1.5-fold higher in IC50: 440 nM for the first, 660 nM for the second. The first is the more potent here.

Going from `O=C(CN1CCCCC1)Nc1ccc(-c2ccc3nc(Nc4ccccc4C(F)(F)F)nn3c2)cc1` [Example 5.6, 2-(piperidin-1-yl)-N-[4-(2-{[2-(trifluoromethyl)phenyl]amino}[1,2,4]triazolo[1,5-a]pyridin-6-yl)phenyl]acetamide] to `N#Cc1ccccc1Nc1nc2ccc(-c3ccc(NC(=O)Cc4ccc(C(F)(F)F)cc4)cc3)cn2n1` [Example 3.1, N-(4-{2-[(2-cyanophenyl)amino][1,2,4]triazolo[1,5-a]pyridin-6-yl}phenyl)-2-[4-(trifluoromethyl)phenyl]acetamide], the IC50 falls from 880 nM to 8.2 nM (110-fold).

`COc1ccccc1Nc1nc2ccc(-c3cccc(NC(=O)Nc4cccnc4)c3)cn2n1` [Example 8.12, 1-(3-{2-[(2-methoxyphenyl)amino][1,2,4]triazolo[1,5-a]pyridin-6-yl}phenyl)-3-pyridin-3-ylurea] showed an IC50 of 270 nM.
